Data published in US9738634B2, “Heterocyclic amide compound and herbicide” (SYNGENTA PARTICIPATIONS AG, priority 2013, dated 2017).

Experiments:
Assay type in all cases: in vivo
barnyard grass [1] = assay: Test Example 1: weedkilling efficacy, preemergent weed treatment in the submerged state; A: barnyard grass; settings: treatment dosage 252 g/ha
How it was run: (§1)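 Pre-emergence paddy test: weed seeds sown in submerged alluvial soil (4 cm water), 2.5-leaf rice transplanted, water-diluted emulsion applied to water surface at sowing at stated g/ha. Scored at 3 weeks, greenhouse 25–30 °C.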

bulrush [2] = assay: Test Example 1: weedkilling efficacy, preemergent weed treatment in the submerged state; B: bulrush; settings: treatment dosage 252 g/ha
How it was run: as §1

oval-leafed pondweed = assay: Test Example 1: weedkilling efficacy, preemergent weed treatment in the submerged state; C: oval-leafed pondweed; settings: treatment dosage 252 g/ha
How it was run: as §1

transplanted rice = assay: Test Example 1: preemergent weed treatment in the submerged state, effect on crop; a: transplanted rice; settings: treatment dosage 252 g/ha
How it was run: as §1

barnyard grass [3] = assay: Test Example 2: weedkilling efficacy, growth period weed treatment in the submerged state; A: barnyard grass; settings: treatment dosage 252 g/ha
How it was run: (§2)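 Seedlings at 1-2 leaves in 4 cm-deep submerged alluvial soil received emulsion formulations on the water surface, dosed per hectare; effects were judged 3 weeks on.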

bulrush [4] = assay: Test Example 2: weedkilling efficacy, growth period weed treatment in the submerged state; B: bulrush; settings: treatment dosage 252 g/ha
How it was run: as §2

crabgrass [5] = assay: Test Example 3: weedkilling efficacy through soil treatment; D: crabgrass; settings: treatment dosage 315 g/ha
How it was run: (§3)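 Crop and weed responses were judged three weeks after a uniform surface spray of the water-diluted emulsion at the given g/ha rate. Seeds sat beneath about 1.5 cm of sterilized diluvial soil, and boxes stood in a greenhouse at 25 to 30° C.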

green foxtail [6] = assay: Test Example 3: weedkilling efficacy through soil treatment; E: green foxtail; settings: treatment dosage 315 g/ha
How it was run: as §3

wild oat [7] = assay: Test Example 3: weedkilling efficacy through soil treatment; G: wild oat; settings: treatment dosage 315 g/ha
How it was run: as §3

black-grass [8] = assay: Test Example 3: weedkilling efficacy through soil treatment; H: black-grass; settings: treatment dosage 315 g/ha
How it was run: as §3

Italian ryegrass [9] = assay: Test Example 3: weedkilling efficacy through soil treatment; I: Italian ryegrass; settings: treatment dosage 315 g/ha
How it was run: as §3

Indian mallow [10] = assay: Test Example 3: weedkilling efficacy through soil treatment; K: Indian mallow; settings: treatment dosage 315 g/ha
How it was run: as §3

redroot pigweed [11] = assay: Test Example 3: weedkilling efficacy through soil treatment; L: redroot pigweed; settings: treatment dosage 315 g/ha
How it was run: as §3

fig-leafed goosefoot [12] = assay: Test Example 3: weedkilling efficacy through soil treatment; M: fig-leafed goosefoot; settings: treatment dosage 315 g/ha
How it was run: as §3

chickweed [13] = assay: Test Example 3: weedkilling efficacy through soil treatment; N: chickweed; settings: treatment dosage 315 g/ha
How it was run: as §3

birds-eye speedwell [14] = assay: Test Example 3: weedkilling efficacy through soil treatment; p: birds-eye speedwell; settings: treatment dosage 315 g/ha
How it was run: as §3

directly sown rice [15] = assay: Test Example 3: soil treatment, effect on crop; b: directly sown rice; settings: treatment dosage 315 g/ha
How it was run: as §3

corn [16] = assay: Test Example 3: soil treatment, effect on crop; c: corn; settings: treatment dosage 315 g/ha
How it was run: as §3

soybean [17] = assay: Test Example 3: soil treatment, effect on crop; d: soybean; settings: treatment dosage 315 g/ha
How it was run: as §3

wheat [18] = assay: Test Example 3: soil treatment, effect on crop; e: wheat; settings: treatment dosage 315 g/ha
How it was run: as §3

crabgrass [19] = assay: Test Example 4: weedkilling efficacy by foliar treatment; D: crabgrass; settings: treatment dosage 315 g/ha
How it was run: (§4)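 Seeds are spot-sown into sterilized diluvial soil and covered with about 1.5 cm of soil. After 14 days' greenhouse growth at 25 to 30° C, plants are sprayed on stems and leaves with diluted emulsion at the stated g/ha rate, then scored at 3 weeks.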

green foxtail [20] = assay: Test Example 4: weedkilling efficacy by foliar treatment; E: green foxtail; settings: treatment dosage 315 g/ha
How it was run: as §4

wild oat [21] = assay: Test Example 4: weedkilling efficacy by foliar treatment; G: wild oat; settings: treatment dosage 315 g/ha
How it was run: as §4

black-grass [22] = assay: Test Example 4: weedkilling efficacy by foliar treatment; H: black-grass; settings: treatment dosage 315 g/ha
How it was run: as §4

Italian ryegrass [23] = assay: Test Example 4: weedkilling efficacy by foliar treatment; I: Italian ryegrass; settings: treatment dosage 315 g/ha
How it was run: as §4

Indian mallow [24] = assay: Test Example 4: weedkilling efficacy by foliar treatment; K: Indian mallow; settings: treatment dosage 315 g/ha
How it was run: as §4

redroot pigweed [25] = assay: Test Example 4: weedkilling efficacy by foliar treatment; L: redroot pigweed; settings: treatment dosage 315 g/ha
How it was run: as §4

fig-leafed goosefoot [26] = assay: Test Example 4: weedkilling efficacy by foliar treatment; M: fig-leafed goosefoot; settings: treatment dosage 315 g/ha
How it was run: as §4

chickweed [27] = assay: Test Example 4: weedkilling efficacy by foliar treatment; N: chickweed; settings: treatment dosage 315 g/ha
How it was run: as §4

catchweed = assay: Test Example 4: weedkilling efficacy by foliar treatment; O: catchweed; settings: treatment dosage 315 g/ha
How it was run: as §4

birds-eye speedwell [28] = assay: Test Example 4: weedkilling efficacy by foliar treatment; p: birds-eye speedwell; settings: treatment dosage 315 g/ha
How it was run: as §4

directly sown rice [29] = assay: Test Example 4: foliar treatment, effect on crop; b: directly sown rice; settings: treatment dosage 315 g/ha
How it was run: as §4

corn [30] = assay: Test Example 4: foliar treatment, effect on crop; c: corn; settings: treatment dosage 315 g/ha
How it was run: as §4

soybean [31] = assay: Test Example 4: foliar treatment, effect on crop; d: soybean; settings: treatment dosage 315 g/ha
How it was run: as §4

wheat [32] = assay: Test Example 4: foliar treatment, effect on crop; e: wheat; settings: treatment dosage 315 g/ha
How it was run: as §4

beet = assay: Test Example 4: foliar treatment, effect on crop; f: beet; settings: treatment dosage 315 g/ha
How it was run: as §4

CC1=C(c2ccccc2)C(=O)N(C(C)(C)C(=O)Nc2cc(Cl)nc(Cl)c2)CO1 [B-4-05]
A (barnyard grass) weedkilling efficacy grade (barnyard grass [1]): 5 (weed kill ratio 90% or more, (practically complete withering))
B (bulrush) weedkilling efficacy grade (bulrush [2]): 5 (weed kill ratio 90% or more, (practically complete withering))
C (oval-leafed pondweed) weedkilling efficacy grade (oval-leafed pondweed): 5 (weed kill ratio 90% or more, (practically complete withering))
a (transplanted rice) effect on crop grade (transplanted rice): 0 (weed kill ratio 5% or less (practically no effect))
A (barnyard grass) weedkilling efficacy grade (barnyard grass [3]): 4 (weed kill ratio 70% or more, less than 90%)
B (bulrush) weedkilling efficacy grade (bulrush [4]): 5 (weed kill ratio 90% or more, (practically complete withering))
D (crabgrass) weedkilling efficacy grade (crabgrass [5]): 5 (weed kill ratio 90% or more, (practically complete withering))
E (green foxtail) weedkilling efficacy grade (green foxtail [6]): 5 (weed kill ratio 90% or more, (practically complete withering))
G (wild oat) weedkilling efficacy grade (wild oat [7]): 5 (weed kill ratio 90% or more, (practically complete withering))
H (black-grass) weedkilling efficacy grade (black-grass [8]): 5 (weed kill ratio 90% or more, (practically complete withering))
I (Italian ryegrass) weedkilling efficacy grade (Italian ryegrass [9]): 5 (weed kill ratio 90% or more, (practically complete withering))
K (Indian mallow) weedkilling efficacy grade (Indian mallow [10]): 3 (weed kill ratio 40% or more, less than 70%)
L (redroot pigweed) weedkilling efficacy grade (redroot pigweed [11]): 4 (weed kill ratio 70% or more, less than 90%)
M (fig-leafed goosefoot) weedkilling efficacy grade (fig-leafed goosefoot [12]): 4 (weed kill ratio 70% or more, less than 90%)
N (chickweed) weedkilling efficacy grade (chickweed [13]): 3 (weed kill ratio 40% or more, less than 70%)
P (birds-eye speedwell) weedkilling efficacy grade (birds-eye speedwell [14]): 5 (weed kill ratio 90% or more, (practically complete withering))
b (directly sown rice) effect on crop grade (directly sown rice [15]): 5 (weed kill ratio 90% or more, (practically complete withering))
c (corn) effect on crop grade (corn [16]): 0 (weed kill ratio 5% or less (practically no effect))
d (soybean) effect on crop grade (soybean [17]): 0 (weed kill ratio 5% or less (practically no effect))
e (wheat) effect on crop grade (wheat [18]): 0 (weed kill ratio 5% or less (practically no effect))
D (crabgrass) weedkilling efficacy grade (crabgrass [19]): 5 (weed kill ratio 90% or more, (practically complete withering))
E (green foxtail) weedkilling efficacy grade (green foxtail [20]): 5 (weed kill ratio 90% or more, (practically complete withering))
G (wild oat) weedkilling efficacy grade (wild oat [21]): 4 (weed kill ratio 70% or more, less than 90%)
H (black-grass) weedkilling efficacy grade (black-grass [22]): 4 (weed kill ratio 70% or more, less than 90%)
I (Italian ryegrass) weedkilling efficacy grade (Italian ryegrass [23]): 5 (weed kill ratio 90% or more, (practically complete withering))
K (Indian mallow) weedkilling efficacy grade (Indian mallow [24]): 3 (weed kill ratio 40% or more, less than 70%)
L (redroot pigweed) weedkilling efficacy grade (redroot pigweed [25]): 3 (weed kill ratio 40% or more, less than 70%)
M (fig-leafed goosefoot) weedkilling efficacy grade (fig-leafed goosefoot [26]): 2 (weed kill ratio 20% or more, less than 40%)
N (chickweed) weedkilling efficacy grade (chickweed [27]): 2 (weed kill ratio 20% or more, less than 40%)
O (catchweed) weedkilling efficacy grade (catchweed): 1 (weed kill ratio 5% or more, less than 20%)
P (birds-eye speedwell) weedkilling efficacy grade (birds-eye speedwell [28]): 4 (weed kill ratio 70% or more, less than 90%)
b (directly sown rice) effect on crop grade (directly sown rice [29]): 5 (weed kill ratio 90% or more, (practically complete withering))
c (corn) effect on crop grade (corn [30]): 3 (weed kill ratio 40% or more, less than 70%)
d (soybean) effect on crop grade (soybean [31]): 3 (weed kill ratio 40% or more, less than 70%)
e (wheat) effect on crop grade (wheat [32]): 0 (weed kill ratio 5% or less (practically no effect))
f (beet) effect on crop grade (beet): 0 (weed kill ratio 5% or less (practically no effect))
